Results as given in patent US12552826B2, “PRMT5 inhibitors” (Merck Sharp & Dohme LLC, priority 2018, dated 2026).
pEC50: −log10 of the molar value. Like-named read-outs stand apart in the source and are kept apart here.

Legend:
[1] = biological target: T1, PRMT5-MEP50 enzyme complex (Homo sapiens, UniProt O14744); experiment: PRMT5-MEP50 Enzyme Methylation Assay; type: biochemical
T1 construct: Full-length (FL)-PRMT5-MEP50 enzyme complex (recombinant proteins from baculovirus-transfected Sf21 cells); made in house; host or cells: baculovirus-transfected Sf21 insect cells
Procedure: PRMT5-MEP50 biochemical assay is a direct measurement of the methylation activity of the enzyme complex on a short peptide substrate derived from the N-terminus of H4 histone. Methylation experiment is performed with recombinant PRMT5-MEP50 protein complex. The assessment of inhibitory effect of small molecules is measured by the effectiveness of the compounds to inhibit this reaction (EC50).
In this assay, the potency (EC50) of each compound was determined from a twenty-point (1:2 serial dilution; top compound concentration of 100000 nM) titration curve using the following outlined procedure. To each well of a white ProxiPlus 384 well-plate, 100 nL of compound (1% DMSO in final assay volume of 10 μL) was dispensed, followed by the addition of 8 μL of 1× assay buffer (50 mM Bicine pH 8.0, 1 mM DTT, 0.004% Tween20, 0.01% BSA) containing 1.25 nM of Full-length (FL)-PRMT5-MEP50 enzyme complex (recombinant proteins from baculovirus-transfected Sf21 cells: FL-PRMT5; MW=[…] and FL-MEP50; MW=38614) and 1 μL of 150 μM S-(5′-Adenosyl)-L-Methionine Chloride (SAM). Plates were sealed and placed in a 37° C. humidified chamber for a 60 minutes pre-incubation with compound. Subsequently, each reaction was initiated by the addition of 1 μL 1× assay buffer containing 750 nM biotinylated H4R3 (Me1) peptide. The final reaction in each well of 10 μL consists of 1.0 nM PRMT5-MEP50, 75 nM biotinylated-peptide, and 15 μM SAM. Methylation reactions were allowed to proceed for 150 minutes in a sealed plate at 37° C. Reactions were immediately quenched by the addition of 1 μL of 5% formic acid. Plates were then frozen and shipped to SAMDITM Tech Inc. to determine the percent conversion from H4R^3 (Me1) to H4R^3 (Me2). Dose-response curves were generated by plotting percent effect (% product conversion; Y-axis) vs. Log10 compound concentrations (X-axis). EC50 values were determined by non-linear regression according to models for either sigmoidal (4 parameters) or biphasic (7 parameters) dose-response curves.

PRMT5 = biological target: T2, PRMT5 (Homo sapiens, UniProt O14744); experiment: PRMT5 Cell Target Engagement (TE) Assay; type: cell-based; details: MCF-7 cells, 3 days treatment, nuclear SDMA by high content imaging
T2 construct: endogenous in cells; host or cells: MCF-7
Method in brief: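 MCF-7 cells seeded 5 h, then treated 3 days at 37 °C with 10-point 1:3 dilutions from 10000 nM. Fixed cells immunostained for SDMA with AF488 secondary; nuclear intensity imaged per cell and expressed as % inhibition vs DMSO. EC50 from 4-parameter robust fit.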

[2] = recombinant FL-PRMT5-MEP50, biotinylated H4R3(Me1) peptide, 15 μM SAM, single EC50 (4 parameter sigmoidal fit) or first EC50 of 7 parameter biphasic fit, read-out: Enzyme Methylation Assay (EC50 or EC50_1)
[3] = second EC50 of 7 parameter biphasic fit, read-out: Enzyme Methylation Assay (EC50_2)

T2 sequence (O14744 whole entry): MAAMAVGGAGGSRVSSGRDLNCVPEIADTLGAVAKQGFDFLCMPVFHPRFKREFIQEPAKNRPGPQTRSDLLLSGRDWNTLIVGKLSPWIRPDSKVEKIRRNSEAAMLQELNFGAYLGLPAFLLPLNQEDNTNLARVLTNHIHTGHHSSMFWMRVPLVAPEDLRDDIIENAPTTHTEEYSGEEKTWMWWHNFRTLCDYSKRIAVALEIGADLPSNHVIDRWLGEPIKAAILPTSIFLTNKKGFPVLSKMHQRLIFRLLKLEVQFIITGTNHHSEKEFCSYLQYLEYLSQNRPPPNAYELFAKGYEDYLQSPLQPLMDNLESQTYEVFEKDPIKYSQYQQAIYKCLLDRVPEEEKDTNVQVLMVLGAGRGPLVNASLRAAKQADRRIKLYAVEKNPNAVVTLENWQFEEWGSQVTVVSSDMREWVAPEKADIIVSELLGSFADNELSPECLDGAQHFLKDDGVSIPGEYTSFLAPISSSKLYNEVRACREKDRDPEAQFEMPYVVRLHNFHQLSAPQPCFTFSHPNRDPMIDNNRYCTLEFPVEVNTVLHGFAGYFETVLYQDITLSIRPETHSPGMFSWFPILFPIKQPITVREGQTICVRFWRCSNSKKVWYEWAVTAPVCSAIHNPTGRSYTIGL
T2 sequence (Q9BQA1 whole entry partner): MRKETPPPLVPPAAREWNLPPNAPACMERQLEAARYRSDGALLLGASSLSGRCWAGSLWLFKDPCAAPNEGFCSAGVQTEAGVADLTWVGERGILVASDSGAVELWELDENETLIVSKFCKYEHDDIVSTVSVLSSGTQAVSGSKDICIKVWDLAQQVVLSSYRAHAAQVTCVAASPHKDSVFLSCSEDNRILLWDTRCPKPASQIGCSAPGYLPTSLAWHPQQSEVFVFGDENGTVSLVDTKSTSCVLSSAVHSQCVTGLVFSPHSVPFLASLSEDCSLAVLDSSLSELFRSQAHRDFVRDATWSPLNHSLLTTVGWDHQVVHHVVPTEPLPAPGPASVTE
T1 sequence (O14744 whole entry): as the sequence (O14744 whole entry) above
T1 sequence (Q9BQA1 whole entry partner): as the sequence (Q9BQA1 whole entry partner) above

What does the source list for `C[C@@]1(O)[C@@H]([C@H](O)c2ccc(F)c(Cl)c2)O[C@@H](n2ccc3c(N)ncnc32)[C@@H]1O` [Example 15, 7-[(5R)-5-C-(3-chloro-4-fluorophenyl)-3-C-methyl-beta-D-ribofuranosyl]-7H-pyrrolo[2,3-d]pyrimidin-4-amine]?
pEC50 [1, 2]: 9.29; pEC50 [1, 3]: 7.12; pEC50 (PRMT5): 7.19

Which results are given for `Cc1ncnc2c1ccn2[C@@H]1O[C@H]([C@H](C)c2cccc3c2CNCC3)[C@@](C)(O)[C@H]1O` [Example 86, (2R,3S,4R,5R)-3-methyl-5-(4-methyl-7H-pyrrolo[2,3-d]pyrimidin-7-yl)-2-((R)-1-(1,2,3,4-tetrahydroisoquinolin-8-yl)ethyl)tetrahydrofuran-3,4-diol]?
pEC50 [1, 2]: 6.46; pEC50 [1, 3]: 4.48; pEC50 (PRMT5): < 5.00

`C[C@@]1(O)[C@@H]([C@@H](O)c2cccc3c2CNCC3)O[C@@H](n2ccc3c(N)ncnc32)[C@@H]1O` [Example 71, 7-[(5S)-3-C-methyl-5-C-(1,2,3,4-tetrahydroisoquinolin-8-yl)-beta-D-ribofuranosyl]-7H-pyrrolo[2,3-d]pyrimidin-4-amine] was tested. Which pEC50 [1, 2] did it give?
Its pEC50 is 7.81.

What about the pEC50 [1, 3] of the same compound?
Its pEC50 is 5.77.

What about the pEC50 (PRMT5) of the same compound?
Its pEC50 is less than 5.00.

`C[C@@]1(O)[C@@H]([C@H](O)c2ccc(Cl)c(Cl)c2)O[C@@H](n2ccc3c(N)ncnc32)[C@@H]1O` [Example 13, 7-[(5R)-5-C-(3,4-dichlorophenyl)-3-C-methyl-beta-D-ribofuranosyl]-7H-pyrrolo[2,3-d]pyrimidin-4-amine] was tested. Which pEC50 [1, 2] did it give?
The pEC50 was 8.83.

What about the pEC50 [1, 3] of the same compound?
Its pEC50 is 7.40.

And the pEC50 (PRMT5)?
Its pEC50 is 7.41.

What does the source list for `C=C(c1cccc2c1CNCC2)[C@H]1O[C@@H](n2ccc3c(C)ncnc32)[C@H](O)[C@]1(C)O` [Example 85, (2R,3S,4R,5R)-3-methyl-5-(4-methyl-7H-pyrrolo[2,3-d]pyrimidin-7-yl)-2-(1-(1,2,3,4-tetrahydroisoquinolin-8-yl)vinyl)tetrahydrofuran-3,4-diol]?
pEC50 [1, 2]: 7.47; pEC50 [1, 3]: 5.57; pEC50 (PRMT5): 5.03

`C[C@@]1(O)[C@@H]([C@H](O)c2cccc3c2CNCC3)O[C@@H](n2ccc3c(N)ncnc32)[C@@H]1O` [Example 70, 7-[(5R)-3-C-methyl-5-C-(1,2,3,4-tetrahydroisoquinolin-8-yl)-beta-D-ribofuranosyl]-7H-pyrrolo[2,3-d]pyrimidin-4-amine] was tested. Which pEC50 [1, 2] did it give?
The pEC50 was 8.75.

What about the pEC50 [1, 3] of the same compound?
Its pEC50 is 7.38.

What about the pEC50 (PRMT5) of the same compound?
Its pEC50 is 5.93.

With `C[C@@]1(O)[C@@H]([C@@H](O)c2cncc(C(F)F)c2)O[C@@H](n2ccc3c(N)ncnc32)[C@@H]1O` [Example 75, 7-{(5S)-5-C-[5-(difluoromethyl)pyridin-3-yl]-3-C-methyl-beta-D-ribofuranosyl}-7H-pyrrolo[2,3-d]pyrimidin-4-amine] as the compound, how does the pEC50 (PRMT5) read?
The pEC50 was less than 5.00.

How did the pEC50 (PRMT5) turn out when `C[C@@]1(O)[C@@H]([C@H](O)c2ccc(Cl)cc2F)O[C@@H](n2ccc3c(N)ncnc32)[C@@H]1O` [Example 42, 7-[(5R)-5-C-(4-chloro-2-fluorophenyl)-3-C-methyl-beta-D-ribofuranosyl]-7H-pyrrolo[2,3-d]pyrimidin-4-amine] was run?
The pEC50 was 5.74.

With `C[C@@]1(O)[C@@H]([C@@H](O)c2cc(F)cc(C(F)(F)F)c2)O[C@@H](n2ccc3c(N)ncnc32)[C@@H]1O` [Example 59, 7-{(5S)-5-C-[3-fluoro-5-(trifluoromethyl)phenyl]-3-C-methyl-beta-D-ribofuranosyl}-7H-pyrrolo[2,3-d]pyrimidin-4-amine] as the compound, how does the pEC50 (PRMT5) read?
The pEC50 was less than 5.00.

`COc1cccc([C@H](O)[C@H]2O[C@@H](n3ccc4c(N)ncnc43)[C@H](O)[C@]2(C)O)c1` [Example 37, 7-[(5S)-5-C-(3-methoxyphenyl)-3-C-methyl-beta-D-ribofuranosyl]-7H-pyrrolo[2,3-d]pyrimidin-4-amine] was tested. Which pEC50 (PRMT5) did it give?
Its pEC50 is less than 5.00.
